According to patent US9580435B2, “Pyrrolo[2,3-D]pyrimidine derivatives as CB2 receptor agonists” (priority 2013, dated 2017):
Where two headings read alike, the source gives them in different places.

Assays:
human CB2 receptors = molecular target: T1, human CB2 receptors (Homo sapiens, UniProt P34972); assay: functional cAMP assay, CHO cells expressing human CB2 receptors; format: cell-based
T1 construct: expressed in transfected cells; host or cells: CHO cells
Method: (§1) CHO cells expressing human CB1 or CB2 receptors are seeded 17-24 hours prior to the experiment 50.000 cells per well in a black 96 well plate with flat clear bottom (Corning Costar #3904) in DMEM (Invitrogen No. 31331), lx HT supplement, with 10% fetal calf serum and incubated at 5% CO2 and 37° C. in a humidified incubator. The growth medium was exchanged with Krebs Ringer Bicarbonate buffer with 1 mM IBMX and incubated at 30° C. for 30 min. Compounds were added to a final assay volume of 100 μl and incubated for 30 min at 30° C. Using the cAMP-Nano-TRF detection kit the assay (Roche Diagnostics) was stopped by the addition of 50 μl lysis reagent (Tris, NaCl, 1.5% Triton X100, 2.5% NP40, 10% NaN3) and 50 μl detection solutions (20 μM mAb Alexa700-cAMP 1:1, and 48 μM Ruthenium-2-AHA-cAMP) and shaken for 2 h at room temperature. The time-resolved energy transfer is measured by a TRF reader (Evotec Technologies GmbH), equipped with a ND:YAG laser as excitation source. The plate is measured twice with the excitation at 355 nm and at the emission with a delay of 100 ns and a gate of 100 ns, total exposure time 10 s at 730 (bandwidth 30 nm) or 645 nm (bandwidth 75 nm), respectively. The FRET signal is calculated as follows: FRET=T730-Alexa730-P(T645-B645) with P=Ru730-B730/Ru645-B645, where T730 is the test well measured at 730 nM, T645 is the test well measured at 645 nm, B730 and B645 are the buffer controls at 730 nm and 645 nm, respectively. cAMP content is determined from the function of a standard curve spanning from 10 μM to 0.13 nM cAMP.
(§2) EC50 values were determined using Activity Base analysis (ID Business Solution, Limited). The EC50 values for a wide range of cannabinoid agonists generated from this assay were in agreement with the values published in the scientific literature.

human CB1 receptors = molecular target: T2, human CB1 receptors (Homo sapiens, UniProt P21554); assay: functional cAMP assay, CHO cells expressing human CB1 receptors; format: cell-based
T2 construct: expressed in transfected cells; host or cells: CHO cells
Method: as §1, §2

[1] = human EC50, functional cAMP assay, CHO cells expressing human CB2, read-out: EC50:CB2

T2 sequence (P21554 whole entry): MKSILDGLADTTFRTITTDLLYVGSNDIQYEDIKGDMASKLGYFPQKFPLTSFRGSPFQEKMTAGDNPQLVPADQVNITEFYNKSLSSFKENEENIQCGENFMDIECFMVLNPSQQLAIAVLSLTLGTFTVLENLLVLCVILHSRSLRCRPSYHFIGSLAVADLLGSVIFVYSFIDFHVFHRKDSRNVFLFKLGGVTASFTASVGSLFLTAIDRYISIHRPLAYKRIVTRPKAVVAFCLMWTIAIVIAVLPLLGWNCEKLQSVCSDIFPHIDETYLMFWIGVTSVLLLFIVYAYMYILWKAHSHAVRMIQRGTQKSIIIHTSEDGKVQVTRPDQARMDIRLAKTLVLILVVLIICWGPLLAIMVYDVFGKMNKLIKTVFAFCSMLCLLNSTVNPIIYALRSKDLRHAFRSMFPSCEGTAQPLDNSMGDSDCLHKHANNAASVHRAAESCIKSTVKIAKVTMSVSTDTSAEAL
T1 sequence (P34972 whole entry): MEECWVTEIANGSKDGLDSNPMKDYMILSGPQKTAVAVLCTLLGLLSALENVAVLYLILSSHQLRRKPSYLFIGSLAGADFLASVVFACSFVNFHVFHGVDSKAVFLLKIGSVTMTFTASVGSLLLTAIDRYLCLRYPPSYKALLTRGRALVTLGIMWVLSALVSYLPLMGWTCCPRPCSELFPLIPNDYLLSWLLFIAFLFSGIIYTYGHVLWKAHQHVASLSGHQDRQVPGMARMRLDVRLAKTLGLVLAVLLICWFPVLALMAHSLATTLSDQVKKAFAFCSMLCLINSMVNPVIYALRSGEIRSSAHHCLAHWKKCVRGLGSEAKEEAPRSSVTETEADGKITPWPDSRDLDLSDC

CC(C)(C)c1nc(N2CCC(O)C2)c2ccn(Cc3ccc(F)cc3Cl)c2n1 (centres unmarked) [Example 25, 1-[2-tert-butyl-7-[(2-chloro-4-fluorophenyl)methyl]pyrrolo[2,3-d]pyrimidin-4-yl]pyrrolidin-3-ol]
EC50 (human CB2 receptors): 10.2 nM
EC50 (human CB1 receptors): 895 nM

CC(C)(C)c1nc(N2CC3(COC3)C2)c2ccn(Cc3ccccc3S(C)(=O)=O)c2n1 [Example 19, 6-[2-tert-butyl-7-[(2-methylsulfonylphenyl)methyl]pyrrolo[2,3-d]pyrimidin-4-yl]-2-oxa-6-azaspiro[3.3]heptane]
EC50 (human CB2 receptors): 14.6 nM
EC50 (human CB1 receptors): > 10000 nM

Cc1nonc1Cn1ccc2c(N3CC[C@H](O)C3)nc(C(C)(C)C)nc21 [Example 48, (3S)-1-[2-tert-butyl-7-[(4-methyl-1,2,5-oxadiazol-3-yl)methyl]pyrrolo[2,3-d]pyrimidin-4-yl]pyrrolidin-3-ol]
EC50 (human CB2 receptors): 8.5 nM
EC50 (human CB1 receptors): > 10000 nM

CC(C)(C)c1nc(N2CCC(O)C2)c2ccn(Cc3ccccc3C(F)(F)F)c2n1 (centres unmarked) [Example 27, 1-[2-tert-butyl-7-[[2-(trifluoromethyl)phenyl]methyl]pyrrolo[2,3-d]pyrimidin-4-yl]pyrrolidin-3-ol]
EC50 (human CB2 receptors): 6.9 nM
EC50 (human CB1 receptors): > 10000 nM

Cc1nonc1Cn1ccc2c(N3CCC(F)(F)C3)nc(C(C)(C)C)nc21 [Example 9, 3-[[2-tert-butyl-4-(3,3-difluoropyrrolidin-1-yl)pyrrolo[2,3-d]pyrimidin-7-yl]methyl]-4-methyl-1,2,5-oxadiazole]
EC50 (human CB2 receptors): 9.5 nM
EC50 (human CB1 receptors): > 10000 nM

CC(C)(C)c1nc(N2CCC(O)C2)c2ccn(Cc3cccnc3Cl)c2n1 (centres unmarked) [Example 29, 1-[2-tert-butyl-7-[(2-chloropyridin-3-yl)methyl]pyrrolo[2,3-d]pyrimidin-4-yl]pyrrolidin-3-ol]
EC50 (human CB2 receptors): 3.6 nM
EC50 (human CB1 receptors): > 10000 nM

CC(C)(C)c1nc(N2CCC(F)(F)C2)c2ccn(Cc3c[nH]nc3C(F)(F)F)c2n1 [Example 41, 2-tert-butyl-4-(3,3-difluoropyrrolidin-1-yl)-7-[[3-(trifluoromethyl)-1H-pyrazol-4-yl]methyl]pyrrolo[2,3-d]pyrimidine]
EC50 (human CB2 receptors): 13.5 nM
EC50 (human CB1 receptors): 1840 nM

CC(C)(C)c1nc(N2CCC(O)C2)c2ccn(Cc3cccc(Cl)c3Cl)c2n1 (centres unmarked) [Example 28, 1-[2-tert-butyl-7-[(2,3-dichlorophenyl)methyl]pyrrolo[2,3-d]pyrimidin-4-yl]pyrrolidin-3-ol]
EC50 (human CB2 receptors): 14 nM
EC50 (human CB1 receptors): > 10000 nM

CC(C)(C)c1nc(N2CC[C@H](O)C2)c2ccn(Cc3ccc(F)cc3Cl)c2n1 [Example 43, (3S)-1-[2-tert-butyl-7-[(2-chloro-4-fluorophenyl)methyl]pyrrolo[2,3-d]pyrimidin-4-yl]pyrrolidin-3-ol]
EC50 (human CB2 receptors): 6.3 nM
EC50 (human CB1 receptors): > 10000 nM

CC(C)(C)c1nc(N2CCC(O)C2)c2ccn(Cc3nnnn3C3CC3)c2n1 (centres unmarked) [Example 38, 1-[2-tert-butyl-7-[(1-cyclopropyltetrazol-5-yl)methyl]pyrrolo[2,3-d]pyrimidin-4-yl]pyrrolidin-3-ol]
EC50 (human CB2 receptors; [1]): 173 nM
EC50 (human CB1 receptors): > 10000 nM

CC(C)(C)c1nc(N2CC3(COC3)C2)c2ccn(Cc3ccc(F)cc3Cl)c2n1 [Example 18, 6-[2-tert-butyl-7-[(2-chloro-4-fluorophenyl)methyl]pyrrolo[2,3-d]pyrimidin-4-yl]-2-oxa-6-azaspiro[3.3]heptane]
EC50 (human CB2 receptors): 42.5 nM
EC50 (human CB1 receptors): > 10000 nM

Cn1nnnc1Cn1ccc2c(N3CCC(O)C3)nc(C(C)(C)C)nc21 (centres unmarked) [Example 34, 1-[2-tert-butyl-7-[(1-methyltetrazol-5-yl)methyl]pyrrolo[2,3-d]pyrimidin-4-yl]pyrrolidin-3-ol]
EC50 (human CB2 receptors; [1]): 134 nM
EC50 (human CB1 receptors): > 10000 nM

CC(C)(C)c1nc(N2CC[C@H](O)C2)c2ccn(Cc3cccnc3Cl)c2n1 [Example 46, (3S)-1-[2-tert-butyl-7-[(2-chloropyridin-3-yl)methyl]pyrrolo[2,3-d]pyrimidin-4-yl]pyrrolidin-3-ol]
EC50 (human CB2 receptors): 5.1 nM
EC50 (human CB1 receptors): > 10000 nM
